Test results: patent US20250296938A1, “Compounds that Interact with the Ras Superfamily for the Treatment of Cancers, Inflammatory Diseases, Rasopathies, and Fibrotic Disease” (SHY Therapeutics, LLC, priority 2018, published 2025)

The molecules below were run against Rho-A (Homo sapiens, UniProt P61586) (assay: Ras GTP binding domain inhibition assay (Cy3-GTP/Cy5-GTP competition)). Details: at 20 μM, with SOS.
Outline: (§1)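 Compounds tested at 20 μM or in serial dilution for IC50 against nickel-captured His-tagged GTPase, 3 hours at room temperature, with or without His-Sos GEF added for last hour. Fluorescent GTP then added at 100 nM for 45 minutes; wells washed, bound label measured by fluorescence.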

| SMILES | Rho-A + SOS: % inh. |
| --- | --- |
| COc1cccc(-c2sc3nc(-c4nccn4C)nc(N4CCC(OC)C4)c3c2-c2ccccc2)c1F (stereo not drawn) [drawing 1025] | B (26-50% inhibition) |

Same assay, conditions: at 20 μM, without SOS

| SMILES | Rho-A: % inh. |
| --- | --- |
| COc1cccc(-c2sc3nc(-c4nccn4C)nc(N4CCC(OC)C4)c3c2-c2ccccc2)c1F (stereo not drawn) [drawing 1025] | B (26-50% inhibition) |

Same assay, conditions: with SOS, read-out: Rho-A + SOS: % inh.

| SMILES | inhibition at 20 µM |
| --- | --- |
| COc1cccc(-c2sc3nc(-c4nccn4C)nc(N[C@H]4C[C@@H](OC)C4)c3c2-c2ccccc2)c1F [drawing 1026] | 51 to 75% |
| CO[C@H]1C[C@@H](Nc2nc(-c3nccn3C)nc3sc(-c4cnn(C)c4)c(-c4ccccc4)c23)C1 [drawing 1027] | 76 to 100% |
| COc1cccc(-c2sc3nc(-c4nccn4C)nc(NC4CCC(OC)C4)c3c2C)c1F (stereo not drawn) [drawing 1028] | 76 to 100% |
| COC1CCC(Nc2nc(-c3nccn3C)nc3sc(-c4cccc5[nH]ncc45)c(C)c23)C1 (stereo not drawn) [drawing 1030] | 26 to 50% |
| COCCn1ccnc1-c1nc(O)c2scc(-c3ccc(OCC(C)C)nc3)c2n1 [drawing 1033] | 76 to 100% |
| CC(C)COc1ccc(-c2csc3c(O)nc(-c4nccn4Cc4ccccn4)nc23)cn1 [drawing 1034] | 76 to 100% |
| COc1cccc(Cn2ccnc2-c2nc(O)c3scc(-c4ccc(OCC(C)C)nc4)c3n2)c1 [drawing 1035] | 51 to 75% |
| CO[C@H]1CC[C@@H](Nc2nc(-c3nccn3C)nc(C(=O)N3CCc4c(O)cccc4C3)c2C)C1 [drawing 1036] | 76 to 100% |
| Cn1ccc(-c2sc3nc(-c4nccn4C)nc(O)c3c2-c2ccccc2)n1 [drawing 1039] | 26 to 50% |
| CO[C@H]1C[C@@H](Nc2nc(-c3ncc[nH]3)nc3sc(-c4ccn(C)n4)c(-c4ccccc4)c23)C1 [drawing 1045] | 26 to 50% |
| CO[C@H]1CC[C@@H](Nc2nc(-c3ncc[nH]3)nc3sc(-c4ccn(C)n4)c(-c4ccccc4)c23)C1 [drawing 1046] | 26 to 50% |

Same assay, conditions: without SOS, read-out: Rho-A: % inh.

| SMILES | inhibition at 20 µM |
| --- | --- |
| COc1cccc(-c2sc3nc(-c4nccn4C)nc(N[C@H]4C[C@@H](OC)C4)c3c2-c2ccccc2)c1F [drawing 1026] | 51 to 75% |
| CO[C@H]1C[C@@H](Nc2nc(-c3nccn3C)nc3sc(-c4cnn(C)c4)c(-c4ccccc4)c23)C1 [drawing 1027] | 76 to 100% |
| COc1cccc(-c2sc3nc(-c4nccn4C)nc(NC4CCC(OC)C4)c3c2C)c1F (stereo not drawn) [drawing 1028] | 76 to 100% |
| COC1CCC(Nc2nc(-c3nccn3C)nc3sc(-c4cccc5[nH]ncc45)c(C)c23)C1 (stereo not drawn) [drawing 1030] | 51 to 75% |
| COCCn1ccnc1-c1nc(O)c2scc(-c3ccc(OCC(C)C)nc3)c2n1 [drawing 1033] | 76 to 100% |
| CC(C)COc1ccc(-c2csc3c(O)nc(-c4nccn4Cc4ccccn4)nc23)cn1 [drawing 1034] | 76 to 100% |
| COc1cccc(Cn2ccnc2-c2nc(O)c3scc(-c4ccc(OCC(C)C)nc4)c3n2)c1 [drawing 1035] | 76 to 100% |
| CO[C@H]1CC[C@@H](Nc2nc(-c3nccn3C)nc(C(=O)N3CCc4c(O)cccc4C3)c2C)C1 [drawing 1036] | 51 to 75% |
| Cn1ccc(-c2sc3nc(-c4nccn4C)nc(O)c3c2-c2ccccc2)n1 [drawing 1039] | 26 to 50% |
| CO[C@H]1C[C@@H](Nc2nc(-c3ncc[nH]3)nc3sc(-c4ccn(C)n4)c(-c4ccccc4)c23)C1 [drawing 1045] | 26 to 50% |
| CO[C@H]1CC[C@@H](Nc2nc(-c3ncc[nH]3)nc3sc(-c4ccn(C)n4)c(-c4ccccc4)c23)C1 [drawing 1046] | 51 to 75% |

What follows are molecules tested against Rac-1 (Homo sapiens, UniProt P63000) in the same assay as above. Details: at 20 μM, with SOS.
Outline: as §1

| SMILES | Rac-1 + SOS: % inh. |
| --- | --- |
| COc1cccc(-c2sc3nc(-c4nccn4C)nc(N4CCC(OC)C4)c3c2-c2ccccc2)c1F (stereo not drawn) [drawing 1025] | B (26-50% inhibition) |

Same assay, conditions: at 20 μM, without SOS

| SMILES | Rac-1: % inh. |
| --- | --- |
| COc1cccc(-c2sc3nc(-c4nccn4C)nc(N4CCC(OC)C4)c3c2-c2ccccc2)c1F (stereo not drawn) [drawing 1025] | B (26-50% inhibition) |

Same assay, conditions: with SOS, read-out: Rac-1 + SOS: % inh.

| SMILES | inhibition at 20 µM |
| --- | --- |
| COc1cccc(-c2sc3nc(-c4nccn4C)nc(N[C@H]4C[C@@H](OC)C4)c3c2-c2ccccc2)c1F [drawing 1026] | 51 to 75% |
| CO[C@H]1C[C@@H](Nc2nc(-c3nccn3C)nc3sc(-c4cnn(C)c4)c(-c4ccccc4)c23)C1 [drawing 1027] | 76 to 100% |
| COc1cccc(-c2sc3nc(-c4nccn4C)nc(NC4CCC(OC)C4)c3c2C)c1F (stereo not drawn) [drawing 1028] | 51 to 75% |
| COC1CCC(Nc2nc(-c3nccn3C)nc3sc(-c4cccc5[nH]ncc45)c(C)c23)C1 (stereo not drawn) [drawing 1030] | 51 to 75% |
| COCCn1ccnc1-c1nc(O)c2scc(-c3ccc(OCC(C)C)nc3)c2n1 [drawing 1033] | 76 to 100% |
| CC(C)COc1ccc(-c2csc3c(O)nc(-c4nccn4Cc4ccccn4)nc23)cn1 [drawing 1034] | 76 to 100% |
| COc1cccc(Cn2ccnc2-c2nc(O)c3scc(-c4ccc(OCC(C)C)nc4)c3n2)c1 [drawing 1035] | 76 to 100% |
| CO[C@H]1CC[C@@H](Nc2nc(-c3nccn3C)nc(C(=O)N3CCc4c(O)cccc4C3)c2C)C1 [drawing 1036] | 51 to 75% |
| Cn1ccc(-c2sc3nc(-c4nccn4C)nc(O)c3c2-c2ccccc2)n1 [drawing 1039] | 26 to 50% |
| CO[C@H]1C[C@@H](Nc2nc(-c3ncc[nH]3)nc3sc(-c4ccn(C)n4)c(-c4ccccc4)c23)C1 [drawing 1045] | 26 to 50% |
| CO[C@H]1CC[C@@H](Nc2nc(-c3ncc[nH]3)nc3sc(-c4ccn(C)n4)c(-c4ccccc4)c23)C1 [drawing 1046] | 51 to 75% |

Same assay, conditions: without SOS, read-out: Rac-1: % inh.

| SMILES | inhibition at 20 µM |
| --- | --- |
| COc1cccc(-c2sc3nc(-c4nccn4C)nc(N[C@H]4C[C@@H](OC)C4)c3c2-c2ccccc2)c1F [drawing 1026] | 51 to 75% |
| CO[C@H]1C[C@@H](Nc2nc(-c3nccn3C)nc3sc(-c4cnn(C)c4)c(-c4ccccc4)c23)C1 [drawing 1027] | 76 to 100% |
| COc1cccc(-c2sc3nc(-c4nccn4C)nc(NC4CCC(OC)C4)c3c2C)c1F (stereo not drawn) [drawing 1028] | 51 to 75% |
| COC1CCC(Nc2nc(-c3nccn3C)nc3sc(-c4cccc5[nH]ncc45)c(C)c23)C1 (stereo not drawn) [drawing 1030] | 51 to 75% |
| COCCn1ccnc1-c1nc(O)c2scc(-c3ccc(OCC(C)C)nc3)c2n1 [drawing 1033] | 76 to 100% |
| CC(C)COc1ccc(-c2csc3c(O)nc(-c4nccn4Cc4ccccn4)nc23)cn1 [drawing 1034] | 76 to 100% |
| COc1cccc(Cn2ccnc2-c2nc(O)c3scc(-c4ccc(OCC(C)C)nc4)c3n2)c1 [drawing 1035] | 76 to 100% |
| CO[C@H]1CC[C@@H](Nc2nc(-c3nccn3C)nc(C(=O)N3CCc4c(O)cccc4C3)c2C)C1 [drawing 1036] | 51 to 75% |
| Cn1ccc(-c2sc3nc(-c4nccn4C)nc(O)c3c2-c2ccccc2)n1 [drawing 1039] | 26 to 50% |
| CO[C@H]1C[C@@H](Nc2nc(-c3ncc[nH]3)nc3sc(-c4ccn(C)n4)c(-c4ccccc4)c23)C1 [drawing 1045] | 26 to 50% |
| CO[C@H]1CC[C@@H](Nc2nc(-c3ncc[nH]3)nc3sc(-c4ccn(C)n4)c(-c4ccccc4)c23)C1 [drawing 1046] | 51 to 75% |

Each molecule was assayed against T1, KRas G12D mutant (Homo sapiens, UniProt P01116, G12D) in the same assay as above. Details: at 20 μM, with SOS.
T1 construct: fused on or other part: His tag, used for capture on nickel-coated plates
Outline: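 First, His-tagged protein is coated on nickel wells overnight at 4 °C. Next, compound (20 μM single point or serial dilution) is added for 3 h at room temperature, with or without Sos exchange factor in the last hour. Finally, 100 nM labelled GTP binds for 45 min and retained signal is measured.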

| SMILES | KRas G12D mutant + SOS: % inh. |
| --- | --- |
| COc1cccc(-c2sc3nc(-c4nccn4C)nc(N4CCC(OC)C4)c3c2-c2ccccc2)c1F (stereo not drawn) [drawing 1025] | C (51-75% inhibition) |

Same assay, conditions: at 20 μM, with SOS; read-out: KRas G12D mutant + SOS: % inh.

| SMILES | inhibition at 20 µM |
| --- | --- |
| COc1cccc(-c2sc3nc(-c4nccn4C)nc(N[C@H]4C[C@@H](OC)C4)c3c2-c2ccccc2)c1F [drawing 1026] | 51 to 75% |
| CO[C@H]1C[C@@H](Nc2nc(-c3nccn3C)nc3sc(-c4cnn(C)c4)c(-c4ccccc4)c23)C1 [drawing 1027] | 76 to 100% |
| COc1cccc(-c2sc3nc(-c4nccn4C)nc(NC4CCC(OC)C4)c3c2C)c1F (stereo not drawn) [drawing 1028] | 51 to 75% |
| COC1CCC(Nc2nc(-c3nccn3C)nc3sc(-c4cccc5[nH]ncc45)c(C)c23)C1 (stereo not drawn) [drawing 1030] | 51 to 75% |
| COCCn1ccnc1-c1nc(O)c2scc(-c3ccc(OCC(C)C)nc3)c2n1 [drawing 1033] | 51 to 75% |
| CC(C)COc1ccc(-c2csc3c(O)nc(-c4nccn4Cc4ccccn4)nc23)cn1 [drawing 1034] | 51 to 75% |
| COc1cccc(Cn2ccnc2-c2nc(O)c3scc(-c4ccc(OCC(C)C)nc4)c3n2)c1 [drawing 1035] | 51 to 75% |
| CO[C@H]1CC[C@@H](Nc2nc(-c3nccn3C)nc(C(=O)N3CCc4c(O)cccc4C3)c2C)C1 [drawing 1036] | 26 to 50% |
| Cn1ccc(-c2sc3nc(-c4nccn4C)nc(O)c3c2-c2ccccc2)n1 [drawing 1039] | 26 to 50% |
| CO[C@H]1C[C@@H](Nc2nc(-c3ncc[nH]3)nc3sc(-c4ccn(C)n4)c(-c4ccccc4)c23)C1 [drawing 1045] | 26 to 50% |
| CO[C@H]1CC[C@@H](Nc2nc(-c3ncc[nH]3)nc3sc(-c4ccn(C)n4)c(-c4ccccc4)c23)C1 [drawing 1046] | 51 to 75% |

Same assay, conditions: at 20 μM, without SOS

| SMILES | KRas G12D mutant: % inh. |
| --- | --- |
| COc1cccc(-c2sc3nc(-c4nccn4C)nc(N4CCC(OC)C4)c3c2-c2ccccc2)c1F (stereo not drawn) [drawing 1025] | A (1-25% inhibition) |

Same assay, conditions: at 20 μM, without SOS; read-out: KRas G12D mutant: % inh.

| SMILES | inhibition at 20 µM |
| --- | --- |
| COc1cccc(-c2sc3nc(-c4nccn4C)nc(N[C@H]4C[C@@H](OC)C4)c3c2-c2ccccc2)c1F [drawing 1026] | 26 to 50% |
| CO[C@H]1C[C@@H](Nc2nc(-c3nccn3C)nc3sc(-c4cnn(C)c4)c(-c4ccccc4)c23)C1 [drawing 1027] | 51 to 75% |
| COc1cccc(-c2sc3nc(-c4nccn4C)nc(NC4CCC(OC)C4)c3c2C)c1F (stereo not drawn) [drawing 1028] | 76 to 100% |
| COC1CCC(Nc2nc(-c3nccn3C)nc3sc(-c4cccc5[nH]ncc45)c(C)c23)C1 (stereo not drawn) [drawing 1030] | 26 to 50% |
| COCCn1ccnc1-c1nc(O)c2scc(-c3ccc(OCC(C)C)nc3)c2n1 [drawing 1033] | 51 to 75% |
| CC(C)COc1ccc(-c2csc3c(O)nc(-c4nccn4Cc4ccccn4)nc23)cn1 [drawing 1034] | 76 to 100% |
| COc1cccc(Cn2ccnc2-c2nc(O)c3scc(-c4ccc(OCC(C)C)nc4)c3n2)c1 [drawing 1035] | 51 to 75% |
| CO[C@H]1CC[C@@H](Nc2nc(-c3nccn3C)nc(C(=O)N3CCc4c(O)cccc4C3)c2C)C1 [drawing 1036] | 26 to 50% |
| Cn1ccc(-c2sc3nc(-c4nccn4C)nc(O)c3c2-c2ccccc2)n1 [drawing 1039] | 26 to 50% |
| CO[C@H]1C[C@@H](Nc2nc(-c3ncc[nH]3)nc3sc(-c4ccn(C)n4)c(-c4ccccc4)c23)C1 [drawing 1045] | 26 to 50% |
| CO[C@H]1CC[C@@H](Nc2nc(-c3ncc[nH]3)nc3sc(-c4ccn(C)n4)c(-c4ccccc4)c23)C1 [drawing 1046] | 26 to 50% |
